Test results taken from ChEMBL document CHEMBL1127957, “Synthesis and glutamate antagonist activity of 4-phosphonoalkylquinoline derivatives: A novel class of non-NMDA antagonist” (Bioorg Med Chem Lett, 1994).

Tests used:
[1] = Displacement of [3H]CNQX from Ionotropic glutamate receptor kainate/Ionotropic glutamate receptor AMPA in rat cortical membranes; type: cell membranes, Membrane
[2] = biological target: Glutamate receptor ionotropic, NMDA 1 (Rattus norvegicus, UniProt P35439); assay: Binding affinity at glycine co-agonist site of rat NMDA receptor
Rattus norvegicus [3] = species on record: Rattus norvegicus; assay: Compound was tested for the ability to inhibit kainic acid (KA)-induced inward currents in Xenopus oocytes injected with poly {A+) mRNA from rats; type: functional
[4] = Tested for its ability to displace [3H]glutamate from NMDA receptor
Rattus norvegicus [5] = species on record: Rattus norvegicus; assay: Compound was tested for its ability to inhibit kainic acid (KA)-induced inward currents in Xenopus oocytes injected with poly {A+) mRNA from rats; type: functional

SMILES	IC50 [1]	IC50 [2]	Ki (Rattus norvegicus [3])	IC50 [4]	Ki (Rattus norvegicus [5])
O=C(O)c1cc(CP(=O)(O)O)c2ccc(Cl)cc2n1	61 µM	69 µM	132 µM	–	–
O=P(O)(O)Cc1cc(O)nc2cc(Cl)c(Cl)cc12	15 µM	79 µM	9.6 µM	> 100 µM	–
O=P(O)(O)Cc1cc(O)nc2cc(Cl)cc(Cl)c12	26 µM	29 µM	18.2 µM	> 100 µM	–
O=P(O)(O)c1cc(O)nc2cc(Cl)ccc12	–	> 1000 µM	> 1000 µM	> 300 µM	–
O=P(O)(O)CCc1cc(O)nc2cc(Cl)ccc12	91 µM	–	–	600 µM	–
O=C(O)c1cc(CCP(=O)(O)O)c2ccc(Cl)cc2n1	384 µM	> 1000 µM	450 µM	> 1000 µM	–
O=P(O)(O)Cc1cc(O)nc2cc(I)ccc12	35 µM	37 µM	15.6 µM	35 µM	–
O=P(O)(O)Cc1cc(O)nc2cc(Cl)ccc12	59 µM	10 µM	32 µM	30 µM	–
N#Cc1cc2c(cc1[N+](=O)[O-])=NC(=O)C(=O)N=2	0.13 µM	7.9 µM	–	–	–
O=[N+]([O-])c1c(Cl)ccc2c(CP(=O)(O)O)cc(O)nc12	300 µM	> 1000 µM	–	> 1000 µM	–
NC(Cc1cc(I)ccc1CCP(=O)(O)O)C(=O)O (stereo unspecified)	7.3 µM	81 µM	–	> 300 µM	3.5 µM
O=[N+]([O-])c1c(Cl)ccc2nc(O)cc(CP(=O)(O)O)c12	> 1000 µM	> 1000 µM	> 300 µM	> 1000 µM	–
